Experimental data as given in PMC5823406, “Vehicle development, pharmacokinetics and toxicity of the anti-invasive agent 4-fluoro-3’,4’,5’-trimethoxychalcone in rodents” (PLoS ONE, 2018).

What was measured:
mouse = system: mouse; set-up: method as in PMID 4962802, PMID 6379027; details: PO; cited from earlier work
Whole blood stability = type: in vitro ADME, rat; details: fresh whole blood, male Sprague-Dawley rat blood, read-out: Compound remaining (% of 0 min)
Experimental: C16 (1 μM) or vehicle (DMSO) were incubated with fresh rat blood (Sprague Dawley, male) at 37°C at 5 time points in duplicate over a 120-min period. The final DMSO concentration in the incubation was 0.25%. Reactions were terminated following 0, 15, 30, 60 and 120 min by acetonitrile containing internal standard. The sampling plate was centrifuged (3000 rpm, 45 min, 4 °C) and the supernatants from each time point analyzed for parent compound by HPLC-MS/MS. The percentage of parent compound remaining at each time point relative to the 0-min sample was then calculated from HPLC-MS/MS peak area ratios (compound peak area/internal standard peak area).
C. Stability and metabolism
For details on ADME experiments not included underneath , please consult ref. [1].
C.A. Whole blood stability
Column: Kinetex XB-C18 column, 2.6 µm (150 x2.1 mm)
Mobile phase A: H2O + 0.1% v/v Formic Acid
Mobile phase B: MeCN + 0.1% v/v Formic Acid
Autosampler syringe volume: 100 µL
Weak wash: MeOH:H2O 1:9 v/v
Strong wash: MeOH:H2O 95:5 v/v
Table K. Gradient program.
Mass spectrometric conditions
Model: AB Sciex API5500 QTrap
Mode: Multiple ion monitoring (MIM)
Table L. MIM (parent to parent transitions).
The areas and percentages for the parent and metabolites have been calculated using MIM data where parent to parent transitions have been used, and assume that each metabolite has the same point of ionisation and the sensitivity of the metabolite has not been affected by the biotransformation.

Row | remaining at 15 min, 1 µM (Whole blood stability; 15 min) | remaining at 30 min, 1 µM (Whole blood stability; 30 min) | remaining at 60 min, 1 µM (Whole blood stability; 60 min) | remaining at 120 min, 1 µM (Whole blood stability; 120 min) | SMILES | LD50 (mouse)
1 |  |  |  |  | C[S+](C)[O-] [DMSO, dimethyl sulfoxide] | 21000 to 28000 mg/kg
2 | 99.9% | 91.1% | 74.3% | 45.5% | COc1ccc([C@@H]2Sc3ccccc3N(CCN(C)C)C(=O)[C@@H]2OC(C)=O)cc1 [diltiazem, reference compound] | 
